How the values were obtained:
[1] = tested on: coculture of keratinocytes and melanocytes; test: Cytotoxicity on keratinocyte/melanocyte coculture, estimated by incorporation of leucine; type: cell-based
[2] = tested on: coculture of keratinocytes and melanocytes; test: Inhibitory activity on melanin synthesis (constitutive melanogenesis), ratio of thiouracil to leucine incorporation; type: cell-based; conditions: concentration for which 50% of the synthesis of the melanin is inhibited; thiouracil/leucine incorporation ratio relative to 100% for the control
Protocol: This test is carried out on a coculture of keratinocytes and melanocytes.
For the test compound, the following were determined: • the cytotoxicity, by estimating the incorporation of leucine, • the inhibitory activity on melanin synthesis, by estimating the ratio of the incorporation of thiouracil to the incorporation of leucine, relative to 100% for the control (the control corresponds to the test performed without test compound). The IC50 (concentration for which 50% of the synthesis of the melanin is inhibited) values were determined.
The test was also carried out with arbutin and kojic acid, which are known depigmenting compounds.

[3] = tested on: pigmented reconstructed epidermis; test: Test on pigmented reconstructed epidermis samples, melanin quantified by image analysis; type: cell-based, human
Protocol: Compositions comprising 300 µM of compound 1 in DMSO were applied to samples of pigmented reconstructed epidermis (cf. EP 1 878 790). The control is DMSO. The melanin was quantified by image analysis on histological slices after staining with Fontana Masson dye. Each sample of coloured epidermis is photographed over its entire length using a camera connected to a microscope. The melanin is thresholded and the number of melanin pixels is measured in each field using automated image analysis software. A non-parametric statistical test is performed in order to determine the significance of the measurements (Mann-Whitney test).
The pigmented reconstructed epidermis standard study model was published by: Regnier M, Duval C, Galey JB, Philippe M, Lagrange A, Tuloup R, Schmidt R, Cellular and Molecular Biology, 1999, 45, 7, 969-980: "Keratinocyte-Melanocyte co-cultures and pigmented reconstructed human epidermis: models to study modulation of melanogenesis".

Row | Compound | Cytotoxicity on coculture [1] | IC50 [2] [µM] | depigmenting activity ([3]; 300 µM, pValue < 0.05 (Ttest 0.0006 in table), Mann-Whitney test) | Percentage (normalized) ([3]; topical application 300 uM in DMSO, melanin area normalized to DMSO 1/1000 control = 100) | Average area ([3]; topical application 300 uM in DMSO, melanin pixels by image analysis after Fontana Masson staining, DMSO 1/1000 control 368.5)
1 | CCOC(=O)C(CC(C)C)NC(=O)C(CCO)Cc1ccc(O)cc1O (stereo not shown) | Non-cytotoxic | 100 | – | – | –
2 | CCOC(=O)C(Cc1ccccc1)NC(=O)C(CCO)Cc1ccc(O)cc1O (stereo not shown) | Non-cytotoxic | 0.15 | – | – | –
3 | O=c1cc(CO)occ1O [Kojic acid, reference compound] | 100 µM | > 500 | – | – | –
4 | CCOC(=O)[C@H](Cc1ccccc1)NC(=O)C(CCO)Cc1ccc(O)cc1O (stereo partly shown) [Compound 1, ethyl N-[2-(2,4-dihydroxybenzyl)-4-hydroxybutanoyl]phenylalaninate] | – | – | Significant depigmenting activity | 71.7 | 264.2
5 | OC[C@H]1O[C@@H](Oc2ccc(O)cc2)[C@H](O)[C@@H](O)[C@@H]1O [Arbutin, reference compound] | Non-cytotoxic | > 500 | – | – | –
6 | CCCCC(CC)CNC(=O)C(CCO)Cc1ccc(O)cc1O (stereo not shown) | 50 µM | 25.2 | – | – | –

Source: patent EP2861555B1, “PROCESS FOR DEPIGMENTING KERATIN MATERIALS USING NOVEL RESORCINOL-BASED COMPOUNDS” (L'Oréal, priority 2012, dated 2013)
